According to patent US12697326B2, “Methods of treating hepatic encephalopathy” (SALIX PHARMACEUTICALS, INC., priority 2008, dated 2026):

Tested on: breakthrough HE episode in subjects with hepatic encephalopathy (HE)
Assay: Time to first breakthrough (overt) HE episode, first study, rifaximin vs placebo
Type: in vivo, human
Details: for Cumulative number of events / Number of events / Probability of no breakthrough overt HE (Kaplan-Meier event-free estimate): ITT, first breakthrough overt HE
Excerpt: An increase in the Conn score of greater than or equal to grade 2 was considered as a breakthrough HE episode.
An efficacy endpoint was the time to first breakthrough overt HE episode. A breakthrough overt HE episode was defined as an increase of Conn score to Grade ≥2 (e.g., 0) or 1 to ≥2) or an increase in Conn and asterixis score of 1 grade each for those subjects who entered the study with a Conn score of 0. Time to breakthrough overt HE episode was the duration from time of first dose of study drug to the first breakthrough overt HE episode. […] Subjects who terminated early for reasons other than breakthrough overt HE were contacted at 6 months from randomization to determine if subjects had experienced a breakthrough overt HE episode or other outcome (e.g., mortality status); and, if the subject had no breakthrough overt HE event prior to contact, he/she was censored at the time of contact. […] Subjects in the study had ≥2 episodes of overt HE equivalent to Conn score ≥2 within 6 months prior to screening (i.e., subjects had documented recurrent, overt HE). At the baseline assessment, subjects were in remission with a Conn score of 0 or 1. A breakthrough overt HE episode, as defined above, was a marked deterioration in neurological function.
Presented herein are the results of the first study and second study. […] The primary efficacy endpoint was the time to breakthrough overt HE. Breakthrough overt HE was defined as an increase of Conn score to Grade ≥2 (e.g., 0 or 1 to ≥2) or an increase in Conn and asterixis score of 1 grade each for those subjects who entered the study with a Conn score of 0. Subjects discontinued from the study at the time of breakthrough overt HE episode. After participation in the first study, subjects had the option to enroll in the open-label, treatment-extension study (the second study).
FIG. 1 illustrates Kaplan-Meier estimates of time to first breakthrough overt HE episode by treatment group in the ITT population. Table 18 presents Kaplan-Meier estimates of the proportions of subjects who experienced breakthrough overt HE over the course of the Treatment Period and results of statistical analyses. […] Subjects who terminated early for reasons other than breakthrough overt HE (eg, liver transplant, AE, subject request) were contacted at 6 months from date of randomization to determine if subjects had experienced a breakthrough overt HE episode or other outcome (e.g., mortality status). Subjects without breakthrough overt HE were censored at the time of contact or death, whichever was earlier.

[1] = breakthrough HE episode by baseline Conn score level, 550 mg BID, N = 93, Days >= 168
[2] = breakthrough HE episode by baseline Conn score level; 550 mg BID; N = 93; Days [0-28)
[3] = breakthrough HE episode by baseline Conn score level; 550 mg BID; N = 93; Days [28-56)
[4] = breakthrough HE episode by baseline Conn score level; 550 mg BID; N = 93; Days [56-84)
[5] = breakthrough HE episode by baseline Conn score level; 550 mg BID; N = 93; Days [84-140)
[6] = breakthrough HE episode by baseline Conn score level; 550 mg BID; N = 93; Days [140-168)
[7] = breakthrough HE episode by baseline MELD score level, 550 mg BID, N = 11, Days >=168
[8] = breakthrough HE episode by baseline MELD score level; 550 mg BID; N = 11; Days [0-28)
[9] = breakthrough HE episode by baseline MELD score level; 550 mg BID; N = 11; Days [28-56)
[10] = breakthrough HE episode by baseline MELD score level; 550 mg BID; N = 11; Days [56-84)
[11] = breakthrough HE episode by baseline MELD score level; 550 mg BID; N = 11; Days [84-140)
[12] = breakthrough HE episode by baseline MELD score level; 550 mg BID; N = 11; Days [140-168)
[13] = breakthrough HE episode by baseline MELD score level, 550 mg BID, N = 34, Days >=168
[14] = breakthrough HE episode by baseline MELD score level; 550 mg BID; N = 34; Days [0-28)
[15] = breakthrough HE episode by baseline MELD score level; 550 mg BID; N = 34; Days [28-56)
[16] = breakthrough HE episode by baseline MELD score level; 550 mg BID; N = 34; Days [56-84)
[17] = breakthrough HE episode by baseline MELD score level; 550 mg BID; N = 34; Days [84-140)
[18] = breakthrough HE episode by baseline MELD score level; 550 mg BID; N = 34; Days [140-168)
[19] = breakthrough HE episode by baseline MELD score level, 550 mg BID, N = 85, Days >=168
[20] = breakthrough HE episode by baseline MELD score level; 550 mg BID; N = 85; Days [0-28)
[21] = breakthrough HE episode by baseline MELD score level; 550 mg BID; N = 85; Days [28-56)
[22] = breakthrough HE episode by baseline MELD score level; 550 mg BID; N = 85; Days [56-84)
[23] = breakthrough HE episode by baseline MELD score level; 550 mg BID; N = 85; Days [84-140)
[24] = breakthrough HE episode by baseline MELD score level; 550 mg BID; N = 85; Days [140-168)
[25] = breakthrough HE episode by prior lactulose use, 550 mg BID, N = 123, Days >=168
[26] = breakthrough HE episode by prior lactulose use; 550 mg BID; N = 123; Days [0-28)
[27] = breakthrough HE episode by prior lactulose use; 550 mg BID; N = 123; Days [28-56)
[28] = breakthrough HE episode by prior lactulose use; 550 mg BID; N = 123; Days [56-84)
[29] = breakthrough HE episode by prior lactulose use; 550 mg BID; N = 123; Days [84-140)
[30] = breakthrough HE episode by prior lactulose use; 550 mg BID; N = 123; Days [140-168)
[31] = breakthrough HE episode by prior lactulose use, 550 mg BID, N = 127, Days >=168
[32] = breakthrough HE episode by prior lactulose use; 550 mg BID; N = 127; Days [0-28)
[33] = breakthrough HE episode by prior lactulose use, 550 mg BID, N = 127, Days [28-56]
[34] = breakthrough HE episode by prior lactulose use, 550 mg BID, N = 127, Days [56-84]
[35] = breakthrough HE episode by prior lactulose use; 550 mg BID; N = 127; Days [84-140)
[36] = breakthrough HE episode by prior lactulose use; 550 mg BID; N = 127; Days [140-168)
[37] = breakthrough HE episode, 550 mg BID, N = 140, Days >=168
[38] = breakthrough HE episode; 550 mg BID; N = 140; Days [0-28)
[39] = breakthrough HE episode; 550 mg BID; N = 140; Days [28-56)
[40] = breakthrough HE episode; 550 mg BID; N = 140; Days [56-84)
[41] = breakthrough HE episode; 550 mg BID; N = 140; Days [84-140)
[42] = breakthrough HE episode; 550 mg BID; N = 140; Days [140-168)
[43] = first study, N = 140, treatment interval 0 to <28 days
[44] = first study, N = 140, treatment interval 28 to 56 days
[45] = first study, N = 140, treatment interval 56 to <84 days
[46] = first study, N = 140, treatment interval 84 to <149 days
[47] = first study, N = 140, treatment interval 140 to <168 days
[48] = first study, N = 140, treatment interval ≥168 days

CO[C@H]1/C=C/O[C@@]2(C)Oc3c(C)c(O)c4c(O)c(c5c(nc6cc(C)ccn65)c4c3C2=O)NC(=O)/C(C)=C\C=C\[C@H](C)[C@H](O)[C@@H](C)[C@@H](O)[C@@H](C)[C@H](OC(C)=O)[C@@H]1C [Rifaximin]
Cumulative Occurrences of Events [1]: 19 | Occurrences of Events [1]: 0 | Survival [1]: 0.7924 | Occurrences of Events [2]: 11 | Survival [2]: 1.0000 | Occurrences of Events [3]: 3 | Survival [3]: 0.8817 | Occurrences of Events [4]: 1 | Survival [4]: 0.8491 | Occurrences of Events [5]: 3 | Survival [5]: 0.8380 | Occurrences of Events [6]: 1 | Survival [6]: 0.8042 | Cumulative Occurrences of Events [7]: 4 | Occurrences of Events [7]: 0 | Survival [7]: 0.6364 | Cumulative Occurrences of Events [8]: 1 | Occurrences of Events [8]: 1 | Survival [8]: 1.0000 | Cumulative Occurrences of Events [9]: 1 | Occurrences of Events [9]: 0 | Survival [9]: 0.9091 | Cumulative Occurrences of Events [10]: 4 | Occurrences of Events [10]: 3 | Survival [10]: 0.9091 | Cumulative Occurrences of Events [11]: 4 | Occurrences of Events [11]: 0 | Survival [11]: 0.6364 | Cumulative Occurrences of Events [12]: 4 | Occurrences of Events [12]: 0 | Survival [12]: 0.6364 | Cumulative Occurrences of Events [13]: 2 | Occurrences of Events [13]: 0 | Survival [13]: 0.9398 | Cumulative Occurrences of Events [14]: 1 | Occurrences of Events [14]: 1 | Survival [14]: 1.0000 | Cumulative Occurrences of Events [15]: 1 | Occurrences of Events [15]: 0 | Survival [15]: 0.9706 | Cumulative Occurrences of Events [16]: 1 | Occurrences of Events [16]: 0 | Survival [16]: 0.9706 | Cumulative Occurrences of Events [17]: 2 | Occurrences of Events [17]: 1 | Survival [17]: 0.9706 | Cumulative Occurrences of Events [18]: 2 | Occurrences of Events [18]: 0 | Survival [18]: 0.9398 | Cumulative Occurrences of Events [19]: 20 | Occurrences of Events [19]: 0 | Survival [19]: 0.7580 | Cumulative Occurrences of Events [20]: 8 | Occurrences of Events [20]: 8 | Survival [20]: 1.0000 | Cumulative Occurrences of Events [21]: 10 | Occurrences of Events [21]: 2 | Survival [21]: 0.9059 | Cumulative Occurrences of Events [22]: 13 | Occurrences of Events [22]: 3 | Survival [22]: 0.8822 | Cumulative Occurrences of Events [23]: 19 | Occurrences of Events [23]: 6 | Survival [23]: 0.8459 | Cumulative Occurrences of Events [24]: 20 | Occurrences of Events [24]: 1 | Survival [24]: 0.7713 | Cumulative Occurrences of Events [25]: 29 | Occurrences of Events [25]: 0 | Survival [25]: 0.7586 | Cumulative Occurrences of Events [26]: 12 | Occurrences of Events [26]: 12 | Survival [26]: 1.0000 | Cumulative Occurrences of Events [27]: 16 | Occurrences of Events [27]: 4 | Survival [27]: 0.9024 | Cumulative Occurrences of Events [28]: 21 | Occurrences of Events [28]: 5 | Survival [28]: 0.8696 | Cumulative Occurrences of Events [29]: 28 | Occurrences of Events [29]: 7 | Survival [29]: 0.8278 | Cumulative Occurrences of Events [30]: 29 | Occurrences of Events [30]: 1 | Survival [30]: 0.7678 | Cumulative Occurrences of Events [31]: 29 | Occurrences of Events [31]: 0 | Survival [31]: 0.7666 | Cumulative Occurrences of Events [32]: 12 | Occurrences of Events [32]: 12 | Survival [32]: 1.0000 | Cumulative Occurrences of Events [33]: 16 | Occurrences of Events [33]: 4 | Survival [33]: 0.9055 | Cumulative Occurrences of Events [34]: 22 | Occurrences of Events [34]: 6 | Survival [34]: 0.8737 | Cumulative Occurrences of Events [35]: 28 | Occurrences of Events [35]: 6 | Survival [35]: 0.8252 | Cumulative Occurrences of Events [36]: 25 | Occurrences of Events [36]: 1 | Survival [36]: 0.7754 | Cumulative Occurrences of Events [37]: 31 | Occurrences of Events [37]: 0 | Survival [37]: 0.7740 | Cumulative Occurrences of Events [38]: 13 | Occurrences of Events [38]: 13 | Survival [38]: 1.0000 | Cumulative Occurrences of Events [39]: 17 | Occurrences of Events [39]: 4 | Survival [39]: 0.9071 | Cumulative Occurrences of Events [40]: 23 | Occurrences of Events [40]: 6 | Survival [40]: 0.8783 | Cumulative Occurrences of Events [41]: 30 | Occurrences of Events [41]: 7 | Survival [41]: 0.8344 | Cumulative Occurrences of Events [42]: 31 | Occurrences of Events [42]: 1 | Survival [42]: 0.7820 | reduction, compared with placebo, in the risk of a breakthrough overt HE episode after adjusting for prognostic factors (first study): 60% | Cumulative number of events [43]: 13 | Number of events [43]: 13 | Probability of no breakthrough overt HE (Kaplan-Meier event-free estimate) [43]: 1.0000 | Cumulative number of events [44]: 17 | Number of events [44]: 4 | Probability of no breakthrough overt HE (Kaplan-Meier event-free estimate) [44]: 0.9071 | Cumulative number of events [45]: 23 | Number of events [45]: 6 | Probability of no breakthrough overt HE (Kaplan-Meier event-free estimate) [45]: 0.8783 | Cumulative number of events [46]: 30 | Number of events [46]: 7 | Probability of no breakthrough overt HE (Kaplan-Meier event-free estimate) [46]: 0.8344 | Cumulative number of events [47]: 31 | Number of events [47]: 1 | Probability of no breakthrough overt HE (Kaplan-Meier event-free estimate) [47]: 0.7820 | Cumulative number of events [48]: 31 | Number of events [48]: 0 | Probability of no breakthrough overt HE (Kaplan-Meier event-free estimate) [48]: 0.7740 | proportion of subjects with breakthrough overt HE (first study, rifaximin group): 22% | subjects who experienced breakthrough overt HE episodes (of 140) (first study, rifaximin group, 6-month period, up to Day 170): 31 | time to breakthrough HE event vs placebo (FIG. 2, Kaplan Meier) (in vivo): increased time to breakthrough HE events
